pIC50: −log10 of the molar value. The source made the active and inactive calls. The rule behind the calls is not given here.
How the values were obtained:
Mus musculus = assay: Anti-inflammatory activity against TPA-induced auricular edema CD-1 mouse model assessed as inhibition of ear edema at 1 mg per ear applied immediately after TPA application and measured after 4 hrs relative to control; assay type: functional
[1] = Cytotoxicity against mouse RAW264.7 cells assessed as cell viability at 70 uM incubated for 24 hrs by MTS assay relative to control; assay type: toxicity, cell-based; settings: read-out: Activity
RAW264.7 [2] = assay: Antiinflammatory activity against LPS-stimulated mouse RAW264.7 cells assessed as inhibition of NO production incubated for 2 hrs followed by LPS stimulation for 20 hrs by Griess reagent based assay; assay type: functional, cell-based
[3] = target: T1, COX-1 (Prostaglandin G/H synthase 1) (Ovis aries, UniProt P05979); assay: Inhibition of ovine COX-1 at 17.5 uM using arachidonic acid as substrate by colorimetric analysis; assay type: single protein; settings: sheep, ovine COX-1 enzyme, probe arachidonic acid
T1 sequence (P05979 whole entry): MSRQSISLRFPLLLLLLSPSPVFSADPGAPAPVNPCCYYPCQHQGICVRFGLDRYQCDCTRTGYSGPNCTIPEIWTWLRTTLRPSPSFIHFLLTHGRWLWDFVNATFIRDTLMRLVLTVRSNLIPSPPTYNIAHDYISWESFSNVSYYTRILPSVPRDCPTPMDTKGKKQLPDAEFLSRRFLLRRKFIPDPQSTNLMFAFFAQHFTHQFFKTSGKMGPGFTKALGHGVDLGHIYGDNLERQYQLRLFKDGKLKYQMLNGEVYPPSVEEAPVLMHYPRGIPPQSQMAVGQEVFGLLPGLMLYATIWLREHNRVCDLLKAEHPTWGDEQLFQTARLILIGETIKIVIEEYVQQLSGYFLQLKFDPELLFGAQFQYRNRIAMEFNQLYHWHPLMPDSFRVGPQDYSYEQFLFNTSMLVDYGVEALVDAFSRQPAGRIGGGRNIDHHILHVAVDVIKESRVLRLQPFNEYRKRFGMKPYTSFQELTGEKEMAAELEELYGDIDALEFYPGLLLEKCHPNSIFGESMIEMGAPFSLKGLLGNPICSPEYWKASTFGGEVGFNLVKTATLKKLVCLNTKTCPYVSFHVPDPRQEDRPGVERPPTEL

RAW-Blue [4] = assay: Inhibition of NF-kappaB activation in LPS-stimulated mouse RAW-Blue cells at 17.5 uM preincubated for 2 hrs followed by LPS stimulation and measured after 20 hrs by QUANTI-Blue assay; assay type: cell-based; settings: time 22.0 hrs
[5] = Cytotoxicity against mouse RAW264.7 cells assessed as cell viability at 35 uM incubated for 24 hrs by MTS assay relative to control; assay type: toxicity, cell-based; settings: read-out: Activity
[6] = target: T2, Prostaglandin G/H synthase 2 (Homo sapiens) (UniProt P35354); assay: Inhibition of human COX-2 at 17.5 uM using arachidonic acid as substrate by colorimetric analysis
T2 sequence (whole entry): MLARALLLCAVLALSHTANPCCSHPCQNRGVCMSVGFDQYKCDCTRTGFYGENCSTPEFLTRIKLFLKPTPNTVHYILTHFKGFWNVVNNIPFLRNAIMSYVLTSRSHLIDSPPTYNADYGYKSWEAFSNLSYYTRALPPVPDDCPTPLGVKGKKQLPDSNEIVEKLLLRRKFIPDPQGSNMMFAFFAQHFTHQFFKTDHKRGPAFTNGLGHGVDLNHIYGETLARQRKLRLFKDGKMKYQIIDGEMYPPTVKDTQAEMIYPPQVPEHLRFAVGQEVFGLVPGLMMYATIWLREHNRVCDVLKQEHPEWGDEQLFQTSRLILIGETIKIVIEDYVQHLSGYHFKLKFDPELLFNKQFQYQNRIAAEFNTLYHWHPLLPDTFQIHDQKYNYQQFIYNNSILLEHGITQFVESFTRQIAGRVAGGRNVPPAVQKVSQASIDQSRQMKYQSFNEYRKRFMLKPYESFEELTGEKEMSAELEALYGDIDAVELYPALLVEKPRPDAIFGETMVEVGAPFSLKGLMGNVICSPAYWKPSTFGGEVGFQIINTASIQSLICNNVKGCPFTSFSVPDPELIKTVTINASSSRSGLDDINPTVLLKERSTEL

RAW264.7 [7] = assay: Cytotoxicity against mouse RAW264.7 cells assessed as reduction in cell viability at 8.8 to 70 uM incubated for 24 hrs by MTS assay; assay type: toxicity, cell-based; settings: raw264.7, 24 h, dose 8.8-70 µM
RAW264.7 [8] = assay: Antiinflammatory activity against LPS-stimulated mouse RAW264.7 cells assessed as inhibition of IL-6 production at 17.5 to 70 uM prestimulated with LPS and 2 hrs later incubated with compound by […] assay; assay type: functional, cell-based; settings: dose 17.5-70 µM
RAW264.7 [9] = assay: Antiinflammatory activity against LPS-stimulated mouse RAW264.7 cells assessed as inhibition of TNF-alpha production at 17.5 to 70 uM prestimulated with LPS and 2 hrs later incubated with compound by […] assay; assay type: functional, cell-based; settings: dose 17.5-70 µM
RAW264.7 [10] = assay: Antiinflammatory activity against LPS-stimulated mouse RAW264.7 cells assessed as inhibition of IL-6 production incubated for 2 hrs followed by LPS stimulation for 20 hrs by ELISA; assay type: functional, cell-based
RAW264.7 [11] = assay: Antiinflammatory activity against LPS-stimulated mouse RAW264.7 cells assessed as inhibition of NO production at 8.8 to 70 uM prestimulated with LPS and 2 hrs later incubated with compound by Griess reagent based assay; assay type: functional, cell-based; settings: dose 8.8-70 µM
RAW-Blue [12] = assay: Inhibition of NF-kappaB activation in LPS-stimulated mouse RAW-Blue cells at 70 uM preincubated for 2 hrs followed by LPS stimulation and measured after 20 hrs by QUANTI-Blue assay; assay type: cell-based; settings: time 22.0 hrs
RAW264.7 [13] = assay: Antiinflammatory activity against LPS-stimulated mouse RAW264.7 cells assessed as inhibition of TNF-alpha production at 70 uM incubated for 2 hrs followed by LPS stimulation for 20 hrs by ELISA relative to control; assay type: functional; settings: time 22 hrs
RAW-Blue [14] = assay: Inhibition of NF-kappaB activation in LPS-stimulated mouse RAW-Blue cells at 35 uM preincubated for 2 hrs followed by LPS stimulation and measured after 20 hrs by QUANTI-Blue assay; assay type: cell-based; settings: time 22.0 hrs
RAW264.7 [15] = assay: Antiinflammatory activity against LPS-stimulated mouse RAW264.7 cells assessed as inhibition of TNF-alpha production at 8.8 to 35 uM prestimulated with LPS and 2 hrs later incubated with compound by […] assay; assay type: functional, cell-based; settings: dose 8.8-35 µM
RAW264.7 [16] = assay: Antiinflammatory activity against LPS-stimulated mouse RAW264.7 cells assessed as inhibition of TNF-alpha production at 35 uM incubated for 2 hrs followed by LPS stimulation for 20 hrs by ELISA relative to control; assay type: functional; settings: time 22 hrs
RAW264.7 [17] = assay: Antiinflammatory activity against LPS-stimulated mouse RAW264.7 cells assessed as inhibition of NO production at 4.4 to 35 uM prestimulated with LPS and 2 hrs later incubated with compound by Griess reagent based assay; assay type: functional, cell-based; settings: dose 4.4-35 µM
RAW264.7 [18] = assay: Antiinflammatory activity against LPS-stimulated mouse RAW264.7 cells assessed as inhibition of IL-6 production at 8.8 to 35 uM prestimulated with LPS and 2 hrs later incubated with compound by […] assay; assay type: functional, cell-based; settings: dose 8.8-35 µM
RAW264.7 [19] = assay: Antiinflammatory activity against LPS-stimulated mouse RAW264.7 cells assessed as inhibition of TNF-alpha production at 84 uM incubated for 2 hrs followed by LPS stimulation for 20 hrs by ELISA relative to control; assay type: functional; settings: time 22 hrs
RAW264.7 [20] = assay: Antiinflammatory activity against LPS-stimulated mouse RAW264.7 cells assessed as inhibition of IL-6 production at 84 uM incubated for 2 hrs followed by LPS stimulation for 20 hrs by ELISA relative to control; assay type: functional; settings: time 22 hrs
RAW264.7 [21] = assay: Antiinflammatory activity against LPS-stimulated mouse RAW264.7 cells assessed as inhibition of IL-6 production at 70 uM incubated for 2 hrs followed by LPS stimulation for 20 hrs by ELISA relative to control; assay type: functional; settings: time 22 hrs

Row | SMILES | inhibition (INH) (Mus musculus) [%] | viability at 24 h, 70 µM [1] [%] | pIC50 (RAW264.7 [2]) | inhibition at 17.5 µM [3] [%] | inhibition [6] [%] | Activity (RAW264.7 [7]) | Activity (RAW264.7 [8]) | Activity (RAW264.7 [9]) | Activity (RAW264.7 [11]) | inhibition (RAW-Blue [12]) [%] | inhibition at 70 µM (RAW264.7 [13]) [%] | other results
1 | C[C@H]1[C@H](C)CC[C@]2(C(=O)O)CC[C@]3(C)C(=CC[C@@H]4[C@@]5(C)CC[C@H](O)C(C)(C)[C@@H]5CC[C@]43C)[C@H]12 [URSOLIC ACID] | 34.2 | 13.9 | 4.86 | 23.6 |  |  |  |  |  |  |  | inhibition (RAW-Blue [4]): 52.2%; viability at 24 h, 35 µM [5]: 30%
2 | C=C(C)[C@@H]1CC[C@]2(C)CC[C@]3(C)[C@H](CC[C@@H]4[C@@](C)(CCCN5CCOCC5)[C@H](C(=C)C)CC[C@]43C)[C@@H]12 | 11.1 |  |  |  | 49.2 | Non-Toxic |  |  |  |  |  | 
3 | C=C(C)[C@@H]1CC[C@]2(C)[C@H](CC=C3[C@@H]4[C@@H](C)[C@H](C)CC[C@]4(C)CC[C@]32C)[C@@]1(C)CCCN1CCOCC1 | 12.2 | 73.8 |  | 12.2 | 74.4 |  |  |  |  |  |  | 
4 | C=C(C)[C@@H]1CC[C@]2(C)CC[C@]3(C)[C@H](CC[C@@H]4[C@@](C)(CCCO)[C@H](C(=C)C)CC[C@]43C)[C@@H]12 | 17.3 |  | 4.26 | 14.8 | 26 | Non-Toxic | Active | Active | Active | 63.4 | 49.8 | pIC50 (RAW264.7 [10]): 4.42
5 | C=C(C)[C@@H]1CC[C@]2(C)CC[C@]3(C)[C@H](CC[C@@H]4[C@@](C)(CCCN5C[C@H](O)C[C@H]5C(=O)OC)[C@H](C(=C)C)CC[C@]43C)[C@@H]12 | 36.4 | 64.2 | 4.63 | 7.2 |  |  |  |  | Active |  |  | inhibition (RAW-Blue [14]): 87.4%; Activity (RAW264.7 [15]): Active; inhibition at 35 µM (RAW264.7 [16]): 55.7%; Activity (RAW264.7 [17]): Active; Activity (RAW264.7 [18]): Active; pIC50 (RAW264.7 [10]): 4.95
6 | COc1ccc2c(c1)c(CC(=O)O)c(C)n2C(=O)c1ccc(Cl)cc1 [INDOMETHACIN] | 91.4 |  | 4.39 |  |  |  |  |  |  |  |  | inhibition at 84 µM (RAW264.7 [19]): 54.6%; inhibition at 84 µM (RAW264.7 [20]): 44.2%
7 | C=C(C)[C@@H]1CC[C@]2(C)[C@H](CC=C3[C@@H]4[C@@H](C)[C@H](C)CC[C@]4(C)CC[C@]32C)[C@@]1(C)CCCNCC(=O)OC | 40.1 |  |  | 33.3 | 61.8 | Non-Toxic |  |  |  |  |  | 
8 | C=C(C)[C@@H]1CC[C@]2(C)CC[C@]3(C)[C@H](CC[C@@H]4[C@@]5(C)CC[C@@H](O)C(C)(C)[C@@H]5CC[C@]43C)[C@H]12 | 66.4 |  |  |  |  |  |  |  |  |  |  | 
9 | C=C(C)[C@@H]1CC[C@]2(C)[C@H](CC=C3[C@@H]4[C@@H](C)[C@H](C)CC[C@]4(C)CC[C@]32C)[C@@]1(C)CCCN1C[C@H](O)C[C@H]1C(=O)OC | 25.2 |  | 4.37 | 37.3 | 61.8 | Non-Toxic | Active | Active | Active | 96.2 | 70 | inhibition at 70 µM (RAW264.7 [21]): 89.1%
10 | C=C(C)[C@@H]1CC[C@]2(C)[C@H](CC=C3[C@@H]4[C@@H](C)[C@H](C)CC[C@]4(C)CC[C@]32C)[C@@]1(C)CCCO | 9.5 |  | 4.23 |  | 66.3 | Non-Toxic | Active | Active | Active | 22 | 68.5 | inhibition at 70 µM (RAW264.7 [21]): 40.2%

Reference: ChEMBL document CHEMBL5120759, “Synthesis, Biological Evaluation, and Molecular Docking Study of 3-Amino and 3-Hydroxy-seco A Derivatives of α-Amyrin and 3-Epilupeol as Inhibitors of COX-2 Activity and NF-kB Activation” (J Nat Prod, 2022)
